The values that follow are results of earlier work, collected in patent US20040235879A1, “Method for treatment of chemotherapy-induced diarrhea” (priority 2003, published 2004).

Molecules are shown by their SMILES. Structures can show the parent of a compound that is named as a salt.

The conditions of data set [1]: cited from earlier work.
The target of a further data set is T1, BCRP/MXR/ABCP (ABCG2) (Homo sapiens, UniProt Q9UNQ0).
T1 sequence (Q9UNQ0 1-655): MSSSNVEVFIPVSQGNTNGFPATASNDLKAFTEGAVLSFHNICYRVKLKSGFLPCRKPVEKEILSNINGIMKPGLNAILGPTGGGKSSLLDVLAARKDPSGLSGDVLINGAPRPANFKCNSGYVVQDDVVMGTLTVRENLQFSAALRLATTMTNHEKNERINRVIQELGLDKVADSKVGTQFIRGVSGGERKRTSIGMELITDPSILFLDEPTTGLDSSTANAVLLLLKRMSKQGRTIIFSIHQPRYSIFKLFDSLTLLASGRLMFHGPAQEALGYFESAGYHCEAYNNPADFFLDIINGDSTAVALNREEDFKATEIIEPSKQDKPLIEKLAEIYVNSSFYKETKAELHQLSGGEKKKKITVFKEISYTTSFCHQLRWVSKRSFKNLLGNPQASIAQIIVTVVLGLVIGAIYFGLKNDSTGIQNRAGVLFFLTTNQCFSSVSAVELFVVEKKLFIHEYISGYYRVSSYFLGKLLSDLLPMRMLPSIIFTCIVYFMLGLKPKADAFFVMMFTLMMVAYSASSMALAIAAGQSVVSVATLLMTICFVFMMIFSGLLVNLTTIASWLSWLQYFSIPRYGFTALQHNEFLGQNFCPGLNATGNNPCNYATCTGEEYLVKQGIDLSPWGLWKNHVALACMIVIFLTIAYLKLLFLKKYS
Particulars: cited from earlier work.

The target of a further data set is P-gp (ABCB1) (Homo sapiens, UniProt P08183). The following applies: cited from earlier work.
Chain of P-gp (ABCB1) (P08183 whole entry, species assumed): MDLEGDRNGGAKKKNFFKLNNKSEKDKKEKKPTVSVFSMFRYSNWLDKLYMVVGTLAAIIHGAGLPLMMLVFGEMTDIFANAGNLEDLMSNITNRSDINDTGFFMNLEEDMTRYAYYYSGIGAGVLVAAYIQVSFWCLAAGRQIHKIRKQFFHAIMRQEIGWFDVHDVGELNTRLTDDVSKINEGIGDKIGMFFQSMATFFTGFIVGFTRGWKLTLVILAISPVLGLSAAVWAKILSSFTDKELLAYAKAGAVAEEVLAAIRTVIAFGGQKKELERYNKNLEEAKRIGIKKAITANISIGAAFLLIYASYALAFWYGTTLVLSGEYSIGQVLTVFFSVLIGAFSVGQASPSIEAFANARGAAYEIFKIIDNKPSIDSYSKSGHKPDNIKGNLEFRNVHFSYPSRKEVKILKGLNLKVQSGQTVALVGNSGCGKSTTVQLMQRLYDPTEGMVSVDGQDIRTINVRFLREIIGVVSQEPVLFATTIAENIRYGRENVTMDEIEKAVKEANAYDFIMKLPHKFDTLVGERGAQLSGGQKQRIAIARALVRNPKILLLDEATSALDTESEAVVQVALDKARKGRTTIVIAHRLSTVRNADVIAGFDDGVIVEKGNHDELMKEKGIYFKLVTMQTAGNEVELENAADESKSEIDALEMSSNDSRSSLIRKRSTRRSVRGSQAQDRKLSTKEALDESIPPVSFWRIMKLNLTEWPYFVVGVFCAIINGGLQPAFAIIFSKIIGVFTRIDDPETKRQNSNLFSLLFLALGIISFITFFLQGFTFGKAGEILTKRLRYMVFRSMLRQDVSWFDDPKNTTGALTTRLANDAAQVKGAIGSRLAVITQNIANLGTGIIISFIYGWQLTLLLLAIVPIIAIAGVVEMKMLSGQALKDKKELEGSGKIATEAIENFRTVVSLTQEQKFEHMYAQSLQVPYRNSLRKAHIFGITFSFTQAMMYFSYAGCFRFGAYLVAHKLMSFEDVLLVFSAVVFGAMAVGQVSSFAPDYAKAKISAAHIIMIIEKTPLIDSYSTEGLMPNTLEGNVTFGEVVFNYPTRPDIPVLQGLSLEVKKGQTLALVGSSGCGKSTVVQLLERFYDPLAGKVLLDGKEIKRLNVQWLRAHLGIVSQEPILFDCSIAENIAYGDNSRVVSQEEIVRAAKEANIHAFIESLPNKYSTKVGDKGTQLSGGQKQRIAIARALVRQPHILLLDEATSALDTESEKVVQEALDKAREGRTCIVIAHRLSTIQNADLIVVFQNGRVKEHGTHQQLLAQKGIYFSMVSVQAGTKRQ
The target of another data set is MRP2 (ABCC2) (Homo sapiens, UniProt Q92887). Particulars: cited from earlier work.
Chain of MRP2 (ABCC2) (Q92887 whole entry, species assumed): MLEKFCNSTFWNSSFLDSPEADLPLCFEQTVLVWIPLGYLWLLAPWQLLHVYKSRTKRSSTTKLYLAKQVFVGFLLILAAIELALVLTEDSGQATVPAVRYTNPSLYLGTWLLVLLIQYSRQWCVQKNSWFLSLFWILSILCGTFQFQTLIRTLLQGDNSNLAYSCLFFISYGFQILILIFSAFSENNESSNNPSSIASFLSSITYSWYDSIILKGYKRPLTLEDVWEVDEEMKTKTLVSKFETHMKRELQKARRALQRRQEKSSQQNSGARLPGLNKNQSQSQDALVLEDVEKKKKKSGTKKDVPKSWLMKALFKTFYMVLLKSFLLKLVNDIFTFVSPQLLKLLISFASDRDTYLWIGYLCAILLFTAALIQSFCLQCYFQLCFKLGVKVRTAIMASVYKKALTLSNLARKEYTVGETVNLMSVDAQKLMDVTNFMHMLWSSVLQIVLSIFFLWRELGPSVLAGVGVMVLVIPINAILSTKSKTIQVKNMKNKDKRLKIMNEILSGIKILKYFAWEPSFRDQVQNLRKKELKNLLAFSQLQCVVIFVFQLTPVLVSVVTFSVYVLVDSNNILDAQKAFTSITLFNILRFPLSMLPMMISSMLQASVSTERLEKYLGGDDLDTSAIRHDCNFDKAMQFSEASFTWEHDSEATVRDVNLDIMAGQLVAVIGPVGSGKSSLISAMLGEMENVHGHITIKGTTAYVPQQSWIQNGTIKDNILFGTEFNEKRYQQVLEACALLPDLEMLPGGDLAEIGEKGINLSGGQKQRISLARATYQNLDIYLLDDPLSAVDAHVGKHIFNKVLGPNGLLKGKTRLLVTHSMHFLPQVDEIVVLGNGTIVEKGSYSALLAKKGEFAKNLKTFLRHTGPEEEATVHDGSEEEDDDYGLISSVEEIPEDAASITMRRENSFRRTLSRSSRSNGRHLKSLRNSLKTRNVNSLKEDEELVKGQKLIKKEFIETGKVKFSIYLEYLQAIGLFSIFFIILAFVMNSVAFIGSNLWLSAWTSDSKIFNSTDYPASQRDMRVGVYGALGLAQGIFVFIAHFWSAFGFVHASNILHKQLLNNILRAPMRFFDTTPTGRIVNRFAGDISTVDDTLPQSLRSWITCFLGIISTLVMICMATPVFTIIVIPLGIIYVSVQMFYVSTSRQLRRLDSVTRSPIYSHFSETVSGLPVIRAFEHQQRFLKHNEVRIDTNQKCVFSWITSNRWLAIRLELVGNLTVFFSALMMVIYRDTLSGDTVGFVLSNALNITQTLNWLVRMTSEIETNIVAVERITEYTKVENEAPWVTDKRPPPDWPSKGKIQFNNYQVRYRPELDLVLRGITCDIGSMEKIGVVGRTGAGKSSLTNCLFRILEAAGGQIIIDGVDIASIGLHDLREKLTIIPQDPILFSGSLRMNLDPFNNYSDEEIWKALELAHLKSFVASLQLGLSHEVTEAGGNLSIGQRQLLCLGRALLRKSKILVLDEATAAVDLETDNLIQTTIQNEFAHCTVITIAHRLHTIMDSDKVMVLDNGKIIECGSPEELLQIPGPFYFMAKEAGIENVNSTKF

In the case of `O=c1[nH]cc(F)c(=O)[nH]1` [5-fluorouracil], the “patients with severe or life-threatening diarrhea” value in data set [1] (5-fluorouracil alone) is “About 8%”. For the same compound, in data set [1] (5-fluorouracil combined with leucovorin), the “frequency of severe or life-threatening diarrhea” value is on record as “up to 25%”.
As for `CCc1c2c(nc3ccc(OC(=O)N4CCC(N5CCCCC5)CC4)cc13)-c1cc3c(c(=O)n1C2)COC(=O)[C@]3(O)CC` [CPT-11, Irinotecan hydrochloride], the “patients requiring hospitalization because of diarrhea” value in data set [1] (diarrhea alone or in combination with other gastrointestinal disturbances) is “more than 18%”.
With `CCc1c2c(nc3ccc(OC(=O)N4CCC(N5CCCCC5)CC4)cc13)-c1cc3c(c(=O)n1C2)COC(=O)[C@]3(O)CC` [irinotecan, [1,4′-Bipiperidine]-1′-carboxylic acid (4S)-4,11-diethyl-3,4,12,14-tetrahydro-4-hydroxy-3,14-dioxo-1H-pyrano[3′,4′:6,7]indolizino[1,2-b]quinolin-9-yl ester], at BCRP/MXR/ABCP (ABCG2), the “substrate of BCRP/MXR/ABCP (ABCG2)” value was “substrate”. The “substrate of P-gp (ABCB1)” value at P-gp (ABCB1) is given as “substrate”. Also, on MRP2 (ABCC2), the “substrate of MRP2 (ABCC2)” value is reported as “substrate”.
